Measurements: patent publication US5698518A, “Method for regulating inflammation and tumor growth with calmodulin, calmodulin analogues or calmodulin antagonists” (Oklahoma Medical Research Foundation, priority 1994, dated 1997)

Tests used:
[1] = system: inhibitory activity of porcine aortic endothelium on TNF release in whole blood; experiment: TNF release in whole blood over pig aorta segments in situ; assay type: cell-based; details: ASA pretreatment of vessel wall
Protocol: (§1) To exclude the possibility that the inhibitory activity of endothelial monolayers was merely an artifact of tissue culture, experiments were performed using intact endothelium in situ in segments of porcine aorta. Normal farm pigs (Spotted Polland) weighing 30-35 kg were euthanized with pentobarbital and the thoracoabdominal aorta removed aseptically. The harvested aorta was rinsed in HBSS containing penicillin 50 IU/ml and streptomycin 50 μg/ml. The aorta was then opened longitudinally along its dorsal surface. The endothelial cell surface was left intact, or denuded mechanically by scraping gently ten times with a metal spatula. The opened aorta was then clamped into a multi-well plexiglass template device, such that the intimal surface of the aorta formed the bottom of the well. The wells were washed with HBSS and blood added and processed exactly as above for 24 well plates.
(§2) As with cultured endothelial cells, TNF release was inhibited when whole blood was incubated in the presence of an intact aortic endothelial surface as compared to an adjacent mechanically denuded segment of vessel (FIG. 21; n=6).

cultured HUVECs = experiment: Prostaglandin release from cultured HUVECs (competitive enzyme immunoassay); assay type: cell-based, human; details: ASA 10^-4 M for 1 hour
Protocol: Endothelial cells were treated with inhibitors of enzymes responsible for production of prostaglandins and nitric oxide. In each case, endothelial cells were pretreated by addition of the inhibitor to the culture medium for one hour, before the addition of blood and the TNF-provoking agonist (e.g., LPS) to the wells. Acetylsalicylic acid (ASA, aspirin), (Sigma, St. Louis, Mo.), which is an irreversible inhibitor of the cyclooxygenase enzyme, was removed after the incubation by washing the endothelial cells three times with Hanks balanced salt solution (HBSS) before adding the blood. Indomethacin and N^G -nitro-L-arginine methyl ester (L-NAME; Sigma), which are competitive inhibitors of cyclooxygenase, and nitric oxide synthase, respectively, were added to the HBSS wash solution and again directly to the blood as soon as it had been pipetted into the wells, so that the target enzyme would have no opportunity to escape inhibition. With indomethacin (which has been reported to increase TNF release from macrophages by blocking autocrine production of PGE2), controls were run in which indomethacin was added to the blood in the absence of endothelium.
Therefore, endothelial monolayers were treated with ASA (10^-4 M for 1 hour), an irreversible cyclooxygenase inhibitor. ASA attenuated the inhibitory activity, but by less than 40% of the total inhibition. […]

[2] = system: elastase release in whole blood over porcine aortic segments; experiment: Elastase release in whole blood over pig aorta segments in situ; assay type: cell-based; details: ASA pretreatment; intact or denuded segment
Protocol: as §1, §2

[3] = system: elastase release in whole blood over endothelial cell monolayer; experiment: Augmentation of elastase release in whole blood by HUVEC monolayer; assay type: cell-based, human; details: whole blood with endotoxin
Protocol: An assay similar to that described in Example 2 was developed for neutrophil elastase in the same plasma samples (measured as the complex between elastase, and α-1-antitrypsin) using a murine monoclonal antibody (HEL 1076) to elastase as capture and biotinylated murine monoclonal antibody (HAT 1099) as detector. The useful range of this assay was 0.05 to 5 nM complex. These antibodies were obtained by immunizing mice with human neutrophil elastase, human α-1-antitrypsin (Athens Research and Technology, Athens, Ga.) and a complex of both using the method detailed in Example 2. Antibodies were screened for their ability to react with native and complexed antigen. Antibodies were purified from ascites using protein G (Pharmacia, Piscataway, N.J.) affinity chromatography and biotinylated using NHS-LC-biotin (Pierce). In addition to the inhibition of TNF release, calmodulin also augmented elastase release similar to that observed with the endothelial cell monolayer (FIG. 1, authentic calmodulin; FIG. 2, purified endothelial cell calmodulin).
In addition, elastase release in whole blood measured as the complex of elastase with α-1 protease inhibitor (α-1 antitrypsin) was augmented by the presence of an endothelial cell monolayer as shown in FIG. 11 (n=8). […]

[4] = system: endothelial inhibition of LPS-induced TNF release in whole blood; experiment: Endothelial (HUVEC) inhibition of LPS-induced TNF release in whole blood, endothelium treated with enzyme inhibitors; assay type: cell-based, human
Protocol: (§3) Blood from healthy volunteers was drawn from the antecubital vein into a heparinized syringe (10 U/ml final; UpJohn, Kalamazoo, Mich.). 24-well culture plates (Costar, Cambridge, Mass.) were coated with 2% (w/v) gelatin (Sigma) and washed three times with Hanks balanced salt solution (HBSS) (Gibco BRL, Gaithersburg, Md.). Only the center eight wells were used to minimize evaporation. Then, 200 μl of blood was pipetted into each well. For comparative experiments involving endothelial cell monolayers, endothelial cells were seeded onto gelatin-coated wells at 3-5×10^5 cells per well 48 hours prior to experimentation. These wells were washed three times with HBSS and heparinized whole blood added as above. In most cases, the same plate would contain wells with and without endothelium for comparison purposes.
(§4) Test reagents suspended in HBSS (8 to 10 μl) were added to the wells immediately after the blood. Plates were incubated at 37° C. in room air/5% CO2 on an orbital shaker at 150 rpm; incubations were four hours unless otherwise noted. The blood then was transferred to microcentrifuge tubes and centrifuged at 500× g for 10 minutes. The resulting platelet-poor plasma was collected and assayed for TNF immediately, as per Example 2 or stored frozen at -70° C. until use.
Endothelial cells were treated with inhibitors of enzymes responsible for production of prostaglandins and nitric oxide. […]

[5] = system: TNF release in whole blood; experiment: TNF release in whole blood evoked by other agonists; assay type: cell-based, human; details: 0.3 to 1 μg/ml
Protocol: as §3, §4
In most experiments, LPS (from E. coli strain 055:B5, Difco) was used to stimulate TNF release. […]

[6] = system: LPS-induced TNF release in whole blood; experiment: LPS-induced TNF release in whole blood (TNF ELISA); assay type: cell-based, human; details: for inhibition of LPS-induced TNF release: 10^-6 M, added directly to whole blood
Protocol: Immunoreactive TNF was measured using a sandwich ELISA sensitive to ≈0.1 ng/ml TNF. 96-well Immulon IV microtiter plates (Dynatech, Chantilly, Va.) were coated overnight at 4° C. with a monoclonal anti-TNF antibody, TNF 1286 or TNF 1311 (5 μg/ml in TBS, 50 μl per well).
The next morning the ELISA plates were washed three times with TBS with 0.1% (v/v) Tween 20 (Sigma) and blocked for one hour with 1% BSA in TBS. Plates were then washed three times. Plasma samples were diluted 1:5 in 0.1% BSA in TBS, and 50 μl/well pipetted onto the plates and allowed to incubate at 37° C. for one hour. TNF standards were made up by addition of known amounts of recombinant human TNF-α (Upstate Biologicals Inc., Lake Placid, N.Y.) to pooled heparinized normal plasma diluted 1:5 in TBS/BSA. All samples and standards were assayed in duplicate. Plates were washed three times and biotinylated goat anti-TNF antibody or biotinylated monoclonal TNF 1289 (2 μg/ml in 0.1% BSA in TBS, 50 μl/well) was applied and incubated at 37° C. for one hour. Plates were washed three times and streptavidin-alkaline phosphatase (Gibco BRL, Grand Island, N.Y.) (0.025 μg/ml in 0.1% BSA in TBS, 50 μl/well) was applied and incubated at 37° C. for one hour. Following a final four washes, an amplified substrate (Gibco BRL) was applied according to the manufacturer's directions. Plates were read at 492 nm on a microtiter plate reader (Molecular Devices, Palo Alto, Calif.) and values obtained by comparing unknowns to a standard curve using a four-parameter fit. The useful range of this assay was 1-50 ng/ml.
as §3, §4
In most experiments, LPS (from E. coli strain 055:B5, Difco) was used to stimulate TNF release. Other agonists used were zymosan (Sigma, St. Louis, Mo.), muramyl dipeptide (Sigma), recombinant human interferon-γ (Mallinckrodt, Paris, Ky.), and recombinant human interleukin-1β (Collaborative Research, Bedford, Mass.). In some experiments, prostaglandin E2 (PGE2) and the stable prostacyclin analogue, carbacyclin (both from Cayman Chemical, Ann Arbor, Mich.) were added just before the LPS. These were dissolved as a 2.84×10^-3 M stock solution in DMSO and diluted in HBSS; buffer controls with the same concentrations of DMSO were assayed in parallel.

[7] = system: human peripheral blood mononuclear cells (PBMC); experiment: LPS-induced TNF production by isolated peripheral blood mononuclear cells; assay type: cell-based; details: PGE2 10^-7 M, n=4, read-out: inhibition of TNF production by isolated PBMCs
Protocol: To establish whether the inhibitory effect of the endothelium was exerted directly on monocytes or required an intermediary blood cell, human peripheral blood mononuclear cells (PBMC) were prepared from freshly drawn heparinized blood by density-gradient separation on Ficoll-Hypaque (Mono-Poly Resolving Medium, Flow Laboratories, McLean, Va.). Furmaniak-Kazmierczak, et al., "Protein S enhances C4b binding protein interaction with neutrophil," Blood 81:405-411 (1993). Isolated PBMC were washed three times with RPMI 1640 (Mediatech) and resuspended at a concentration of 3-5×10^6 cells/ml. 200 μl aliquots were added to 24-well tissue culture plates, incubated, and assayed as described with whole blood.
Mononuclear cells (4.47±0.94×10^6 /ml) isolated from fresh whole blood released TNF dose-dependently in response to LPS in a manner similar to whole blood.

[8] = system: TNF release in whole blood in response to E. coli; experiment: TNF release in whole blood in response to gentamicin-killed E. coli; assay type: cell-based, human; details: data not shown
Protocol: Whole gentamicin-killed E. coli were examined as another stimulus that probably evokes TNF release by several different pathways; for example, they serve as a phagocytic stimulus and also activate complement components. A single colony of E. coli serotype B7 086a61 (ATCC#33985) on an LB plate was cultured overnight in LB Medium (Difco, Detroit, Mich.). The next morning the cells were washed three times in Hanks balanced salt solution (HBSS) and then resuspended in HBSS to 5.7×10^9 cells per ml. Before addition to blood, bacteria were killed by treatment with gentamicin sulfate (Elkins-Sinn, Cherry Hill, N.J.), 500 μg/ml for one hour. TNF release assays were performed according to procedures given in Example 2.

Q: How did the “effect on TNF-inhibitory activity of aortic endothelium” value [1] turn out when `CC(=O)Oc1ccccc1C(=O)O` [ASA, Acetylsalicylic acid] was run?
A: The value was “partially reduced”.

Q: What about the “PGE2 release from cultured HUVECs after treatment” value (cultured HUVECs; untreated 0.93 nM, 0.2 nM is limit of detection) of the same compound?
A: Its value is under 0.2 nM.

Q: And the “prostacyclin release from cultured HUVECs after treatment” value (cultured HUVECs; untreated 4.0 nM)?
A: The value was 0.26 nM.

Q: What about the “effect on stimulation of elastase release by aortic segments” value [2] of the same compound?
A: Its value is “did not significantly alter”.

Q: What about the “effect on endothelial augmentation of elastase release” value [3] of the same compound?
A: Its value is “not changed”.

Q: Which “effect on endothelial inhibition of TNF release” value ([4]; L-NAME 10^-4 M) does the source give for `COC(=O)[C@@H](N)CCCN=C(N)N[N+](=O)[O-]` [L-NAME, N^G -nitro-L-arginine methyl ester] here?
A: Its value is “No reduction”.

Q: With `CC(=O)N[C@H]1C(O)O[C@H](CO)[C@@H](O)[C@@H]1O[C@H](C)C(=O)N[C@@H](C)C(=O)N[C@H](CCC(=O)O)C(N)=O` (some centres unmarked) [Muramyl dipeptide, muramyl dipeptide] as the compound, how does the “TNF release agonist activity alone” value [5] read?
A: The value was “weak agonists”.

Q: What does the source list for `CCCCC[C@H](O)/C=C/[C@H]1[C@H](O)CC(=O)[C@@H]1C/C=C\CCCC(=O)O` [PGE2, prostaglandin E2]?
A: inhibition of LPS-induced TNF release ([6]; no endothelial cells): almost complete suppression; inhibition at 0.1 µM ([6]; Homo sapiens, PGE2 10^-7 M, n=12, read-out: inhibition of whole-blood TNF production): 83.6 ± 2.7%; potency relative to carbacyclin (inhibition of LPS-induced TNF release) ([6]; whole blood, no endothelial cells): at least 10 fold; inhibition at 0.1 µM [7]: 63.9 ± 9.6%

Q: With `CCCCC[C@H](O)/C=C/[C@@H]1[C@H]2C/C(=C/CCCC(=O)O)C[C@H]2C[C@H]1O` [carbacyclin] as the compound, how does the “inhibition of LPS-induced TNF release” value ([6]; no endothelial cells) read?
A: Its value is “almost complete suppression”.

Q: `COc1ccc2c(c1)c(CC(=O)O)c(C)n2C(=O)c1ccc(Cl)cc1` [indomethacin, Indomethacin] was tested. Which “effect on inhibitory effect of endothelial cells in suspension on TNF release” value ([4]; endothelial cells in suspension) did it give?
A: The value was “did not block”.

Q: What about the “effect on LPS-induced TNF release in the absence of endothelium” value ([6]; indomethacin added to blood, no endothelium) of the same compound?
A: The value was “marginally higher TNF release”.

Q: What about the “effect on endothelial augmentation of elastase release” value [3] of the same compound?
A: Its value is “not changed”.

Q: Which “effect on TNF response to LPS” value ([6]; whole blood, data not shown) does the source give for Polymyxin B here?
A: Its value is “dose-dependently antagonized”.

Q: What about the “effect on TNF response to E. coli” value [8] of the same compound?
A: The value was “unaffected”.
